Experimental data reported in the supplement of paper PMC10307832.

Tests used:
Assay in all cases: relative viability (nuclei count vs DMSO), 5 days (fraction); higher = more cells survive
[1] = compound: CCN(CCO)CCCC(C)Nc1ccnc2cc(Cl)ccc12 [Hydroxychloroquine] + CCNC(=O)c1noc(-c2cc(C(C)C)c(O)cc2O)c1-c1ccc(CN2CCOCC2)cc1 [Luminespib] (partner 0.01 µM)
Outline: (§1)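 Lung cancer cell lines in 1536-well plates were dosed by pin tool the day after seeding, either with one drug alone or with a fixed anchor-drug dose plus five library-drug doses (not always all listed) in √10 steps. After 5 days, cells were fixed and their nuclei stained in one step (final 0.05% Triton X-100, 1% formaldehyde, 1 ug/ml Hoechst), then counted on 4× images. Relative viability is the nuclei count in treated wells divided by that in vehicle wells. Values are medians of duplicate plates.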

[2] = compound: CCN(CCO)CCCC(C)Nc1ccnc2cc(Cl)ccc12 [Hydroxychloroquine] + COc1cccc2cc(-c3nc([C@H]4CC[C@H](C(=O)O)CC4)n4ncnc(N)c34)[nH]c12 [OSI-027] (partner 0.5 µM)
Outline: as §1

[3] = compound: CCN(CCO)CCCC(C)Nc1ccnc2cc(Cl)ccc12 [Hydroxychloroquine] + CS(=O)(=O)N1CCN(Cc2cc3nc(-c4cccc5[nH]ncc45)nc(N4CCOCC4)c3s2)CC1 [Pictilisib] (partner 1 µM)
Outline: as §1

[4] = compound: CCN(CCO)CCCC(C)Nc1ccnc2cc(Cl)ccc12 [Hydroxychloroquine] + CC(=O)c1c(C)c2cnc(Nc3ccc(N4CCNCC4)cn3)nc2n(C2CCCC2)c1=O [Palbociclib] (partner 0.5 µM)
Outline: as §1

Row | Cell Line | relative viability ([1]; first compound 0.5 µM) | relative viability ([1]; first compound 1.581 µM) | relative viability ([1]; first compound 5 µM) | relative viability ([1]; first compound 15.81 µM) | relative viability ([1]; first compound 50 µM) | relative viability ([2]; first compound 0.5 µM) | relative viability ([2]; first compound 1.581 µM) | relative viability ([2]; first compound 5 µM) | relative viability ([2]; first compound 15.81 µM) | relative viability ([2]; first compound 50 µM) | relative viability ([3]; first compound 0.5 µM) | relative viability ([3]; first compound 1.581 µM) | relative viability ([3]; first compound 5 µM) | relative viability ([3]; first compound 15.81 µM) | relative viability ([3]; first compound 50 µM) | relative viability ([4]; first compound 0.5 µM) | relative viability ([4]; first compound 1.581 µM) | relative viability ([4]; first compound 5 µM) | relative viability ([4]; first compound 15.81 µM) | relative viability ([4]; first compound 50 µM)
1 | NCI-H1915 | 0.756 | 0.788 | 0.94 | 1.12 | 0.915 | 0.648 | 0.53 | 0.599 | 0.583 | 0.685 | 0.973 | 0.869 | 0.947 | 0.895 | 0.978 | 0.532 | 0.495 | 0.559 | 0.568 | 0.542
2 | NCI-H2009 | 0.94 | 0.964 | 1.09 | 1.1 | 0.999 | 0.632 | 0.616 | 0.651 | 0.658 | 0.644 | 0.844 | 0.776 | 0.901 | 0.803 | 0.989 | 0.195 | 0.209 | 0.212 | 0.237 | 0.197
3 | BEN | 0.382 | 0.331 | 0.309 | 0.311 | 0.33 | 0.319 | 0.284 | 0.268 | 0.373 | 0.325 | 0.615 | 0.465 | 0.49 | 0.6 | 0.676 | 0.482 | 0.434 | 0.439 | 0.473 | 0.469
4 | PC-3 [JPC-3] | 0.762 | 0.711 | 0.745 | 0.686 | 0.774 | 0.743 | 0.642 | 0.82 | 0.745 | 0.924 | 0.79 | 0.696 | 0.693 | 0.674 | 0.784 | 0.538 | 0.576 | 0.59 | 0.561 | 0.511
5 | SK-MES-1 | 0.725 | 0.818 | 0.778 | 0.84 | 0.661 | 0.623 | 0.381 | 0.712 | 0.67 | 0.589 | 0.4 | 0.373 | 0.321 | 0.342 | 0.359 | 0.365 | 0.319 | 0.332 | 0.368 | 0.343
6 | NCI-H838 | 0.318 | 0.304 | 0.333 | 0.295 | 0.268 | 0.421 | 0.392 | 0.37 | 0.406 | 0.401 | 0.509 | 0.465 | 0.398 | 0.465 | 0.53 | 0.237 | 0.197 | 0.242 | 0.194 | 0.22
7 | NCI-H1355 | 0.877 | 0.754 | 0.712 | 0.632 | 0.729 | 0.509 | 0.301 | 0.371 | 0.332 | 0.44 | 0.475 | 0.362 | 0.461 | 0.485 | 0.471 | 0.41 | 0.365 | 0.392 | 0.387 | 0.379
8 | NCI-H1975 | 0.296 | 0.142 | 0.257 | 0.281 | 0.234 | 0.846 | 0.74 | 0.711 | 0.868 | 0.991 | 0.292 | 0.26 | 0.305 | 0.263 | 0.328 | 0.47 | 0.53 | 0.603 | 0.615 | 0.789
